Measured values published in ChEMBL document CHEMBL1145478, “Neisseria gonorrhoeae isolates with reduced susceptibility to cefixime and ceftriaxone: association with genetic polymorphisms in penA, mtrR, porB1b, and ponA” (2007).
Values after ≈ are worked out from the molar mass of the structure shown.

Assays:
Type in all cases: functional
[1] = system: Neisseria gonorrhoeae; experiment: Antimicrobial activity against Neisseria gonorrhoeae 64 isolate
[2] = system: Neisseria gonorrhoeae; experiment: Antimicrobial activity against Neisseria gonorrhoeae 273 isolate
[3] = system: Neisseria gonorrhoeae; experiment: Antimicrobial activity against Neisseria gonorrhoeae 30 isolate
[4] = system: Neisseria gonorrhoeae; experiment: Antimicrobial activity against Neisseria gonorrhoeae 91 isolate
[5] = system: Neisseria gonorrhoeae; experiment: Antimicrobial activity against Neisseria gonorrhoeae 82 isolate
[6] = system: Neisseria gonorrhoeae; experiment: Antimicrobial activity against Neisseria gonorrhoeae 67 isolate
[7] = system: Neisseria gonorrhoeae; experiment: Antimicrobial activity against Neisseria gonorrhoeae 201 isolate
[8] = system: Neisseria gonorrhoeae; experiment: Antimicrobial activity against Neisseria gonorrhoeae 188 isolate
[9] = system: Neisseria gonorrhoeae; experiment: Antimicrobial activity against Neisseria gonorrhoeae 65 isolate
[10] = system: Neisseria gonorrhoeae; experiment: Antimicrobial activity against Neisseria gonorrhoeae 196 isolate
[11] = system: Neisseria gonorrhoeae; experiment: Antimicrobial activity against Neisseria gonorrhoeae 119 isolate
[12] = system: Neisseria gonorrhoeae; experiment: Antimicrobial activity against Neisseria gonorrhoeae 128 isolate
[13] = system: Neisseria gonorrhoeae; experiment: Antimicrobial activity against Neisseria gonorrhoeae 158 isolate
[14] = system: Neisseria gonorrhoeae; experiment: Antimicrobial activity against Neisseria gonorrhoeae 59 isolate
[15] = system: Neisseria gonorrhoeae; experiment: Antimicrobial activity against Neisseria gonorrhoeae 90 isolate
[16] = system: Neisseria gonorrhoeae; experiment: Antimicrobial activity against Neisseria gonorrhoeae 35 isolate
[17] = system: Neisseria gonorrhoeae; experiment: Antimicrobial activity against Neisseria gonorrhoeae 253 isolate

Structure (SMILES) | MIC [1] | MIC [2] | MIC [3] | MIC [4] | MIC [5] | MIC [6] | MIC [7] | MIC [8] | MIC [9] | MIC [10] | MIC [11] | MIC [12] | MIC [13] | MIC [14] | MIC [15] | MIC [16] | MIC [17]
C=CC1=C(C(=O)O)N2C(=O)[C@@H](NC(=O)/C(=N\OCC(=O)O)c3csc(N)n3)[C@H]2SC1 [CEFIXIME] | 0.25 µg/mL (≈ 0.551 µM) | 0.064 µg/mL (≈ 0.141 µM) | 0.25 µg/mL (≈ 0.551 µM) | 0.38 µg/mL (≈ 0.838 µM) | 0.38 µg/mL (≈ 0.838 µM) | 0.25 µg/mL (≈ 0.551 µM) | 0.064 µg/mL (≈ 0.141 µM) | 0.064 µg/mL (≈ 0.141 µM) | 0.25 µg/mL (≈ 0.551 µM) | 0.094 µg/mL (≈ 0.207 µM) | < 0.016 µg/mL | < 0.016 µg/mL | 0.047 µg/mL (≈ 0.104 µM) | 0.25 µg/mL (≈ 0.551 µM) | 0.38 µg/mL (≈ 0.838 µM) | 0.38 µg/mL (≈ 0.838 µM) | 0.064 µg/mL (≈ 0.141 µM)
CO/N=C(\C(=O)N[C@@H]1C(=O)N2C(C(=O)O)=C(CSc3nc(=O)c(O)nn3C)CS[C@H]12)c1csc(N)n1 [CEFTRIAXONE] | 0.094 µg/mL (≈ 0.169 µM) | 0.094 µg/mL (≈ 0.169 µM) | 0.094 µg/mL (≈ 0.169 µM) | 0.125 µg/mL (≈ 0.225 µM) | 0.125 µg/mL (≈ 0.225 µM) | 0.094 µg/mL (≈ 0.169 µM) | 0.064 µg/mL (≈ 0.115 µM) | 0.064 µg/mL (≈ 0.115 µM) | 0.094 µg/mL (≈ 0.169 µM) | 0.094 µg/mL (≈ 0.169 µM) | < 0.002 µg/mL | < 0.002 µg/mL | 0.094 µg/mL (≈ 0.169 µM) | 0.094 µg/mL (≈ 0.169 µM) | 0.125 µg/mL (≈ 0.225 µM) | 0.094 µg/mL (≈ 0.169 µM) | 0.064 µg/mL (≈ 0.115 µM)
CC1(C)S[C@@H]2[C@H](NC(=O)Cc3ccccc3)C(=O)N2[C@H]1C(=O)O [PENICILLIN G] | 2 µg/mL (≈ 5.98 µM) | 1.5 µg/mL (≈ 4.49 µM) | 3 µg/mL (≈ 8.97 µM) | 6 µg/mL (≈ 17.9 µM) | 6 µg/mL (≈ 17.9 µM) | 2 µg/mL (≈ 5.98 µM) | 1 µg/mL (≈ 2.99 µM) | 1 µg/mL (≈ 2.99 µM) | 1.5 µg/mL (≈ 4.49 µM) | 1 µg/mL (≈ 2.99 µM) | 0.012 µg/mL (≈ 0.0359 µM) | 0.008 µg/mL (≈ 0.0239 µM) | 1.5 µg/mL (≈ 4.49 µM) | 6 µg/mL (≈ 17.9 µM) | 6 µg/mL (≈ 17.9 µM) | 2 µg/mL (≈ 5.98 µM) | 1.5 µg/mL (≈ 4.49 µM)
